# Test results reported in patent US9522198B2, “Methods and compositions related to targeting tumors and wounds” (Sanford-Burnham Medical Research Institute, priority 2006, dated 2016).
# Entries after “also recorded” stand apart in the source; their conditions may differ. Ends that are not written are not given here.
# Key:
# PPC1 xenograft tumor = assay: Peptide overlay assay on frozen tumor sections; type: binding; conditions: PPC1 xenografts
# Procedure: (§1) The mice were perfused through the heart 3 hours after the peptide injection and tissues removed for examination. For fibrin and fibronectin immunostaining, tissues were fixed with 4% paraformaldehyde and stained with biotinylated mouse fibrin(ogen) antiserum (Nordic Immunological Laboratories) or a polyclonal anti-mouse fibronectin (Chemicon), followed by streptavidin Alexa 594 or anti-rabbit Alexa 594 (Molecular Probes), respectively. For peptide overlay, sections of frozen OCT embedded tissue were incubated with 10 μg/ml fluorescein-conjugated peptide for 30 min at room temperature. Tissue fluorescence was quantified using Image-Pro Plus software. At least two images from representative microscopic fields were analyzed from each tissue sample and data from individual mice that received the same treatment (n=2-8) were pooled.
# [1] = tested on: mouse Lewis lung carcinoma; assay: Peptide overlay assay on frozen tumor sections; type: binding
# Procedure: as §1
# fibrinogen = molecular target: T1, fibrinogen (Homo sapiens, UniProt P02671+P02675+P02679); assay: Aggregate formation with plasma proteins, light scattering at 600 nm (turbidity); type: biochemical
# T1 sequence (P02671 20-629 limits assumed): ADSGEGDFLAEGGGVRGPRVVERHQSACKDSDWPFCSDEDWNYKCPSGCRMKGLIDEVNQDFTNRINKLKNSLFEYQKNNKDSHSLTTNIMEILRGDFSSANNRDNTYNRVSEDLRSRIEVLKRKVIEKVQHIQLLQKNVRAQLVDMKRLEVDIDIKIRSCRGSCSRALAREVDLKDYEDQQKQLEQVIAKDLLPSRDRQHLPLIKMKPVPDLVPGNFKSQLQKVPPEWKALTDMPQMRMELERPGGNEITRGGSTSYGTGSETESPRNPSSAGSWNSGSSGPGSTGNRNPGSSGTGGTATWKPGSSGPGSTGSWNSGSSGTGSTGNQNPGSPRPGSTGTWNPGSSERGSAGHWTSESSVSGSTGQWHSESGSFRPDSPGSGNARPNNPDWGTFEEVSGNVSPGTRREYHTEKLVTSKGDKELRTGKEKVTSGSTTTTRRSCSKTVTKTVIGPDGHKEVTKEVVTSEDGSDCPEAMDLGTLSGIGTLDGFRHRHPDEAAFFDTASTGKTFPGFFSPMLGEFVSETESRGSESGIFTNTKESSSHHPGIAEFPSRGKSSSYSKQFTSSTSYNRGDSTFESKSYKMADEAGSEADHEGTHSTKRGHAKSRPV
# T1 sequence (P02675 31-491): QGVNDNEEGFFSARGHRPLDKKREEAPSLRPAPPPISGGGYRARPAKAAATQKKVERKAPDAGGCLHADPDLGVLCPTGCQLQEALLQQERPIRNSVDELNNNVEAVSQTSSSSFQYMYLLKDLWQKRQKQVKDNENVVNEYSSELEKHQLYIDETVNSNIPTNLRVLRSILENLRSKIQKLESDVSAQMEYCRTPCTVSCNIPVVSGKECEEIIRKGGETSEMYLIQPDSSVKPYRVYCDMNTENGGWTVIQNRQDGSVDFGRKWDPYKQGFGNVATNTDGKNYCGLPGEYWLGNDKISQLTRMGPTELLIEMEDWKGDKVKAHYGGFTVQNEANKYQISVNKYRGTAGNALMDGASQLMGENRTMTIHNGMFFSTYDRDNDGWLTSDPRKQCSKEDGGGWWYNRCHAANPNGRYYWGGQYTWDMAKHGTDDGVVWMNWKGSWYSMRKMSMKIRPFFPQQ
# T1 sequence (P02679 27-453): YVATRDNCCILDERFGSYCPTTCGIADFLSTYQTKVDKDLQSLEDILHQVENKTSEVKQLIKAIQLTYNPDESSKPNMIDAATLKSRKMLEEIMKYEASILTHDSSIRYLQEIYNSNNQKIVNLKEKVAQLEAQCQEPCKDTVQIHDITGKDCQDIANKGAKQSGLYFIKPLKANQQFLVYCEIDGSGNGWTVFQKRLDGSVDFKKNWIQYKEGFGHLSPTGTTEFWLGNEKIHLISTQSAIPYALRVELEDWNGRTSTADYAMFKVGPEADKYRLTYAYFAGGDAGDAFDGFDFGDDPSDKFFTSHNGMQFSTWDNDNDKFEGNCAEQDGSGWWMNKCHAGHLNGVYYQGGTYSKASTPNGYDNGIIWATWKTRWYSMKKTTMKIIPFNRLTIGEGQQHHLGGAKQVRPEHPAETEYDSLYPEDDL
# Description: (§2) CLT1 contains a sequence of three consecutive hydrophobic residues, LII (leucine-isoleucine-isoleucine). This motif is very similar to the VII sequence (V, valine) which causes proteins to form large insoluble aggregates (Esteras-Chopo et al. 2005). […] The ability of CLT1 to aggregate proteins correlates with its cytotoxicity for human umbilical venous endothelial cells (HUVECs).
# fibronectin = assay: as above; type: biochemical
# Description: as §2
# albumin = albumin (Homo sapiens, UniProt P02768); assay: Aggregate formation in albumin solution (turbidity); type: biochemical; conditions: added to an albumin solution
# Description: as §2
sequence,measurement,setting,value
"CGLIIQKNEC (also: cyclic, ring type not given here, fluorescein conjugate, site not given here) [CLT1, cyclic decapeptide from phage library screened on plasma clots; tested as fluorescein conjugate]",overlay binding,PPC1 xenograft tumor,positive
same,overlay binding in presence of control peptide,[1]; co-incubation with control peptide,not by a control peptide
same,overlay binding in presence of unlabeled CLT peptide,[1]; co-incubation with unlabeled CLT1,inhibited; also recorded: eliminated
same,binding pattern in peptide overlay,"[1]; fluorescein-conjugated peptide 10 μg/ml, 30 min",produced a fibrillar network
same,aggregate formation with fibrinogen,fibrinogen,form aggregates
same,aggregate formation with fibronectin,fibronectin,form aggregates
same,aggregate formation in albumin solution,albumin,not amyloidogenic
